{"source": "patent US20160082105A1", "about": "“Antibody Buffering of a Ligand in Vivo” (ARROWSMITH TECHNOLOGIES CORPORATION, priority 2004, published 2016)", "key": {"[1]": {"assay": "Antibody buffering in plasma: total Ox after jugular infusion", "type": "in vivo, rat", "conditions": "for t1/2 of Ox (FIG. 6): 5 animals per point", "excerpt": "Timepoints were again taken and analyzed as above.\nTo determine its pharmacokinetic behavior, tritiated Ox was infused into a rat through a jugular cannula, and elimination of Ox was followed through blood sampling, separation of the plasma by centrifugation, and scintillation counting of the plasma."}, "[2]": {"procedure": "Samples were prepared for injection: 4.54 nmol anti-Ox antibody and 2.27 nmol Ox; 4.54 nmol D1.3 control antibody and 2.27 nmol Ox; or no antibody and 2.27 nmol Ox. Each sample was diluted to 1 ml with sterile PBS. The samples were warmed to 37° C., and then infused over 1 minute through the jugular vein cannula in Sprague-Dawley rats as described above. At various timepoints, 0.45 ml of blood was withdrawn and immediately centrifuged to separate out the plasma. 100 μl of plasma were counted directly by placing the plasma into 5 ml of Scintiverse II and counting in a Beckman LS6500 Scintillation Counter. 100 μl plasma was used in bound vs. free Ox experiments described below. For some rats, 0.1 ml of blood minus plasma was analyzed. These samples were first decolorized by incubating at 40° C. in 0.3 ml of Scintigest (Fisher Scientific):isopropanol (1:2 v/v) for one hour. Then 0.2 ml of 30% H2O2 was added dropwise, and the solution was incubated at room temperature for 15 minutes. Pipetting up and down was needed to break up some clumps. The solution was incubated at 40° C. before placing it into 5 ml of Scintiverse II. The samples were allowed to sit overnight before counting to reduce chemiluminescence. Control samples were prepared using known amounts of Ox to aid in analysis.\nThe rat anti-mouse kappa antibody 187.1 (see Example 1) was isolated from spent culture medium and purified by passage over a Protein A-Sepharose affinity column. Ten g of CNBr-activated Sepharose 4 Fast Flow (Amersham Biosciences) were washed and coupled with 187.1 according to manufacturer's protocol. Two mg 187.1 per 10 g of swelled resin were used.\nDuring the antibody buffering experiments, 100 μl of plasma was loaded onto the 187.1 column immediately after centrifugation. Three ml of PBS followed by three ml of 0.2 M glycine (pH 2.5) were then applied onto the column as described in Example 1. All PBS fractions and all glycine fractions were collected separately for each timepoint and dried down in the SpeedVac. The residue was resuspended in 150 μl PBS and then transferred to a scintillation vial with 5 ml Scintiverse II for counting.\nSamples of NQ11/7.12 and Ox were prepared and infused into Sprague-Dawley rats as described above. Blood samples (0.4 ml) were taken at time 1, 10, 20, 50, 90, and 120 minutes. 100 μl plasma were counted directly and 100 μl were placed on a 187.1 column to separate bound and free Ox. At 24 hours and again at 48 hours following the first administration, 2.27 nmol Ox in 0.5 ml PBS was infused over 1 minute through the jugular cannula. Timepoints were again taken and analyzed as above.\nBound and free forms of Ox in plasma fractions from the animals were separated on an affinity column. […] An immobilized rat anti-mouse kappa antibody was used to trap antibody-Ox complexes while free Ox eluted from the column with a PBS wash (free Ox fraction)."}, "[3]": {"conditions": "Ox alone re-administered at 24 hours and 48 hours after a single NQ11/7.12 + Ox infusion"}, "[4]": {"conditions": "Ox with D1.3, biphasic elimination"}, "[5]": {"conditions": "Ox administered alone or with D1.3"}}, "note": "Where two headings read alike, the source gives them in different places.", "data": [{"smiles": "O=C(O)CCCNC=C1N=C(c2ccccc2)OC1=O", "note": "[Ox, 2-phenyl-oxazol-5-one-γ-amino butyrate]", "values": [{"measurement": "increase in Ox half-life in plasma with anti-Ox antibody", "setting": "[1]; NQ11/7.12 vs D1.3", "value": "seventeen-fold"}, {"measurement": "t1/2 of Ox (FIG. 6)", "setting": "[1]; Ox administered with NQ11/7.12, jugular vein cannula", "value": 19.7, "unit": "min"}, {"measurement": "t1/2 of Ox (FIG. 6)", "setting": "[1]; Ox administered with control antibody D1.3, jugular vein cannula", "value": 1.2, "unit": "min"}, {"measurement": "total Ox pharmacokinetic lifetime in plasma, long term buffering", "setting": "[1]; [3]", "value": "only small changes"}, {"measurement": "Ox elimination half-life from plasma", "setting": "[1]; Ox alone, jugular infusion", "value": 1.2, "unit": "min"}, {"measurement": "adverse effects in the animal subjects", "setting": "[1]; Ox infused with NQ11/7.12 or D1.3, rats", "value": "No adverse effects were noted"}, {"measurement": "Ox elimination half-life from plasma, major (fast) phase", "setting": "[1]; [4]", "value": "1.2 ± 0.2", "unit": "min"}, {"measurement": "Ox elimination half-life from plasma, smaller (slow) phase", "setting": "[1]; [4]", "value": "10 ± 2", "unit": "min"}, {"measurement": "Ox elimination half-life from plasma", "setting": "[1]; Ox with twice the molar amount of NQ11/7.12", "value": "20 ± 2", "unit": "min"}, {"measurement": "Ox concentration in the cellular fraction of blood, of the total Ox concentration in the plasma", "setting": "[1]; rat, in vivo", "value": "1-2%"}, {"measurement": "free Ox elimination half-life in plasma", "setting": "[2]; [5]", "value": "6.0 ± 1", "unit": "min"}, {"measurement": "initial free Ox concentration in plasma", "setting": "[2]; [5]", "value": 6.8, "unit": "nM"}, {"measurement": "free Ox concentration in plasma after an hour", "setting": "[2]; Ox administered with NQ11/7.12", "value": 0.8, "unit": "nM"}, {"measurement": "free Ox elimination half-life in plasma", "setting": "[2]; Ox administered with NQ11/7.12", "value": "41 ± 6", "unit": "min"}, {"measurement": "initial free Ox concentration in plasma", "setting": "[2]; Ox administered with NQ11/7.12", "value": 2.2, "unit": "nM"}, {"measurement": "decline of free Ox concentration in plasma compared with NQ11/7.12", "setting": "[2]; Ox administered with NQ16/113.8 or NQ22/16.4", "value": "declined much more rapidly"}, {"measurement": "free Ox concentration in plasma, long term buffering", "setting": "[2]; [3]", "value": "quickly normalized"}, {"measurement": "fraction of unbuffered Ox eliminated from plasma before the first timepoint", "setting": "[2]; Ox without anti-Ox antibody", "value": "more than half"}]}]}
